According to article PMC8808171, “Nonselective TRPC channel inhibition and suppression of aminoglycoside-induced premature termination codon readthrough by the small molecule AC1903” (The Journal of Biological Chemistry, 2022):

How the values were obtained:
TRPC5–C1 = molecular target: T1, TRPC5–C1 (Homo sapiens, UniProt P48995+Q9UL62); assay: [Ca2+]i recordings (Fura-2), concatemeric TRPC5–C1 in HEK T-REx cells; type: cell-based; conditions: activator EA (30 nM)
T1 construct: expressed in transfected cells; host or cells: HEK T-REx (tetracycline-induced)
Experimental: Based on the findings described above, we wondered whether AC1903—which is typically used as a TRPC5 inhibitor at concentrations of 30–100 μM in cellular assays ([29], [56])—might have limited selectivity for TRPC5 channels and whether its effect on intracellular G418 levels and PTC readthrough might be the consequence of inhibition of other or multiple targets. All well-characterized TRPC channel inhibitors reported to date modulate multiple TRP(C) channels ([34], [35], [36]). […] Because limited data for the selectivity of AC1903 are available in the public domain, we decided to profile AC1903 against a selection of calcium-permeable cation channels by intracellular calcium ([Ca^2+]i) recordings using well-characterized cell lines and TRP channel activators ([46], [57], [58]), and the Ca^2+ indicator Fura-2. In these assays, cells (HEK 293, HEK T-REx, or CHO) overexpressing the relevant ion channel protein and loaded with Fura-2 AM (a cell-permeable precursor of Fura-2) were preincubated with various concentrations of AC1903 or vehicle (DMSO) for 30 min. Then, changes in ratiometric fluorescence (from background) were recorded upon addition of the respective ion channel activator.
HEK T-REx cells expressing tetracycline-inducible TRPC4, TRPC5, TRPC5–C1,TRPC4–C1, and hPiezo1 have been described previously ([46], [57], [59], [78]). […]

TRPC4 = molecular target: T2, TRPC4 (Homo sapiens, UniProt Q9UBN4); assay: Whole-cell patch-clamp recordings of EA-activated TRPC4 currents in HEK T-REx cells; type: cell-based; conditions: EA 30 nM
T2 construct: expressed in transfected cells; host or cells: HEK T-REx (tetracycline-induced)
Experimental: B) Representative current–voltage relationship for one (Tet+) HEK T-Rex cell expressing TRPC4, showing current after activation by EA (30 nM) and subsequent inhibition by addition of AC1903 (10 μM). C, quantified data from experiments represented by (A) (scatter plots showing current amplitudes at +100 mV (black circles) or −100 mV (white circles) from three independent experiments; bars represent mean ± SD; n = 3). ∗ indicates statistically significant difference between samples according to paired t test (p < 0.05). EA, (-)-englerin A; TRPC, transient receptor potential canonical.
For electrophysiology experiments, cells were plated at a low density of 20 to 30% onto round coverslips (13 mm diameter or 5 × 5 mm), and TRPC4 expression in HEK T-REx was induced with 1 μg ml^−1 tetracycline 24 h before experimentation. Experiments were carried out at room temperature. […] The patch-clamp currents were recorded using an Axopatch 200B amplifier, digitized by a Digidata 1440 and recorded to a computer using pCLAMP10 (Molecular Devices). The data were filtered at 1 kHz and analyzed offline using Clampfit 10.7 software and Origin 2019b software (OriginLab). […]
Inhibition of G418-induced premature stop codon readthrough […]

T1 sequence (Q9UL62+P48995 fused): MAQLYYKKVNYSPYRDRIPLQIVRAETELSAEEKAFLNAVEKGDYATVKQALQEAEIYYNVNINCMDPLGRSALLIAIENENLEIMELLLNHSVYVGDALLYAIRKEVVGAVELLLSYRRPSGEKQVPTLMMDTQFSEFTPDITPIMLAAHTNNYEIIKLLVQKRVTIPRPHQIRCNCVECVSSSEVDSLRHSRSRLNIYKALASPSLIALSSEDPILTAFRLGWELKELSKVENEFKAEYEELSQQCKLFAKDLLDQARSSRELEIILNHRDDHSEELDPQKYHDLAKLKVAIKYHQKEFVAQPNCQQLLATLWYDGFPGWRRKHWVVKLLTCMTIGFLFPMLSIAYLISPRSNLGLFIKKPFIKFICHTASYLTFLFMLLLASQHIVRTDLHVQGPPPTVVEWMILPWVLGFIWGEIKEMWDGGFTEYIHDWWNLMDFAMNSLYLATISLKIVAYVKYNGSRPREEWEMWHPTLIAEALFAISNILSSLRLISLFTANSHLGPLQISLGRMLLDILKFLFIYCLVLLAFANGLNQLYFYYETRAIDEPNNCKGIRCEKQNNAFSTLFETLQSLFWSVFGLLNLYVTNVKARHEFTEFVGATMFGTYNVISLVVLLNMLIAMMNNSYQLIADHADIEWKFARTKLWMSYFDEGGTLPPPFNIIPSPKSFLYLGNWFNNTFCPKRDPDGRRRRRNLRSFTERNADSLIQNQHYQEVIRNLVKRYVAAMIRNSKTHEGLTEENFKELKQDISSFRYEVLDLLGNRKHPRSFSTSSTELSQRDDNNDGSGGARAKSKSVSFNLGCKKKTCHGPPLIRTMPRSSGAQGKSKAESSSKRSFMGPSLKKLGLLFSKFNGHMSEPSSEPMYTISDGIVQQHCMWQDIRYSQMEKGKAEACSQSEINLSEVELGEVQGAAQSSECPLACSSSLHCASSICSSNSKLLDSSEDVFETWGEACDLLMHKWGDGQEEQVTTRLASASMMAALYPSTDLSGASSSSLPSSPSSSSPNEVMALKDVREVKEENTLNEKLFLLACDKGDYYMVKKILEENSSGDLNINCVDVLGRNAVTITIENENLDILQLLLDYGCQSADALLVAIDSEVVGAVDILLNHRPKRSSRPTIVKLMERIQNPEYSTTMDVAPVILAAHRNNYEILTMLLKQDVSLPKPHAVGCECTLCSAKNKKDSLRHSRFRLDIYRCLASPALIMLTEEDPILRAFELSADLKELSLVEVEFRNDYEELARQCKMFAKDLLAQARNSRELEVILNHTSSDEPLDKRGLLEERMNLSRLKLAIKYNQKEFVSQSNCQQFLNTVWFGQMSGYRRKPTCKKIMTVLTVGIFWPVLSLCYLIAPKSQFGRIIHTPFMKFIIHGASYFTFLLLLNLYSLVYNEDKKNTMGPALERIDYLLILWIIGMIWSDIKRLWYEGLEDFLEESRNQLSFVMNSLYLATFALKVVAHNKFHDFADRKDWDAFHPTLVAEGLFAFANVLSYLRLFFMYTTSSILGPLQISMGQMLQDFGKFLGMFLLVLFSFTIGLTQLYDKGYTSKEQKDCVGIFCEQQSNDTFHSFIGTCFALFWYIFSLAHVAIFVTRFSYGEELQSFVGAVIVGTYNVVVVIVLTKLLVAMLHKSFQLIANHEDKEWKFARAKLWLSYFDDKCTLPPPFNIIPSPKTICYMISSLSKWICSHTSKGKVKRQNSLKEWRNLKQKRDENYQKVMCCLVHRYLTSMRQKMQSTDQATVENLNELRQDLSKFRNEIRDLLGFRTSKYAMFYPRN
T2 sequence (Q9UBN4 1-893 isoform Q9UBN4-2): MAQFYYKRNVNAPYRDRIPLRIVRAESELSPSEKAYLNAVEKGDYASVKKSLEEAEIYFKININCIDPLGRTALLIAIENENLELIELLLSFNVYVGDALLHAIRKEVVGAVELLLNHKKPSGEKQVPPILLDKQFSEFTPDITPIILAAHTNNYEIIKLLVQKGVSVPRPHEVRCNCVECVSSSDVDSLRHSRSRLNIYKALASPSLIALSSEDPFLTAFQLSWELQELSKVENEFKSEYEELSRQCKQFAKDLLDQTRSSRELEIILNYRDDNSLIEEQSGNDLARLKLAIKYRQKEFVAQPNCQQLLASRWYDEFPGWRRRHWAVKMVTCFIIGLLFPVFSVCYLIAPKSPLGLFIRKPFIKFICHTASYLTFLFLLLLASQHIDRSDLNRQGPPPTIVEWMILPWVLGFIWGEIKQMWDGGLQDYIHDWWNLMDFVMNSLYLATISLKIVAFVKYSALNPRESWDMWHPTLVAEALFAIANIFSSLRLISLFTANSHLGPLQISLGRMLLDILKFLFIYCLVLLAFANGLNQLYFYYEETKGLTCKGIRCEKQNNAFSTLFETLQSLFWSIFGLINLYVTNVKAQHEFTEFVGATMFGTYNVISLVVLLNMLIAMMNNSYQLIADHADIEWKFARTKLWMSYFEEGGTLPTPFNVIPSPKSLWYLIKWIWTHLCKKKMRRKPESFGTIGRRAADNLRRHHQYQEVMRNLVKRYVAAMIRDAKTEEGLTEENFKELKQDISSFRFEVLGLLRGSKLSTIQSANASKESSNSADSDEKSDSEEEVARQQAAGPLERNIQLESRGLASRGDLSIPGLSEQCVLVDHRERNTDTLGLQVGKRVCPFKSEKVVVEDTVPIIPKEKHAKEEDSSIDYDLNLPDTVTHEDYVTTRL

IC50 (TRPC5–C1; HEK T-REx): 4.7 µM | Hill slope (TRPC5–C1): -1.3 | inhibition of EA-activated currents (TRPC4; 10 μM AC1903, whole-cell patch clamp): fully and reversibly inhibited | inhibition of EA-activated TRPC4 currents, cumulative addition (TRPC4; AC1903 0.3–30 μM): concentration-dependent inhibition
SMILES: c1ccc(Cn2c(NCc3ccco3)nc3ccccc32)cc1 [AC1903]
